{"source": "paper PMC12264960", "about": "“siRNA Interaction and Transfection Properties of Polycationic Phosphorus Dendrimers” (Biomacromolecules, 2025)", "origin": "cited, not measured here", "key": {"[1]": {"tested_on": "translation in the prokaryotic system", "design": "method as in earlier work", "details": "ref [4]"}, "[2]": {"tested_on": "translation in the eukaryotic system", "design": "method as in earlier work", "details": "ref [4]"}}, "data": [{"smiles": "NC1C(OCOC2C(N)[C@H](O[C@H]3C(N)C[C@H](N)C(O)C3O)OC(CO)[C@@H]2O)[C@H](O)C(CO)O[C@@H]1O[C@@H]1C(N)C[C@@H](N)C(O)C1O", "note": "(some centres unmarked) [NB33]", "values": [{"measurement": "times weaker inhibitor of translation compared to apramycin", "setting": "[1]", "value": 22, "unit": "times"}, {"measurement": "fold better inhibitor of translation compared to apramycin", "setting": "[2]", "value": 10, "unit": "fold"}]}]}
